One may read the GI50 as the concentration at which growth is held to half of that of the control. Low readings indicate greater sensitivity of the cells, high ones lower sensitivity of the cells. A word on the IC50: it is the concentration that gives 50% inhibition. A lower IC50 goes with greater potency. The term melting point denotes the temperature of the solid-liquid transition.

The results in this text go back to patent US20210163404A1, “NOVEL UREA COMPOUNDS AND BIOISOSTERES THEREOF AND THEIR USE FOR TREATING INFLAMMATION AND INFLAMMATION-RELATED PATHOLOGIES” (UNIVERSITÉ LAVAL, priority 2017, published 2021).

For data set [1], the system named is A549 adenocarcinoma alveolar epithelial cancer cells. Briefly: Antiproliferative activity (NCI procedure, sulforhodamine B), A549. Format: cell-based, human. The settings on record: Homo sapiens, A549, 48 h. The gist of the method: (§1)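 Cells seeded in DMEM, grown 24 h at 37 °C, then exposed 48 h to serial dilutions from 100 μM to 781 nM (DMSO <0.5%). TCA fixation, sulforhodamine B staining, absorbance at 530-568 nm; growth inhibition relative to plates fixed on treatment day. At least two experiments in triplicate.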

Data set [2] has as its system HDFn neonatal dermal fibroblast cell line. Briefly: Antiproliferative activity (NCI procedure, sulforhodamine B), HDFn. Format: cell-based, human. The settings on record: Homo sapiens, Fibroblast, 48 h. The gist of the method: as §1
Data set [3] relates to HT-29 colon adenocarcinoma cells. Briefly: Antiproliferative activity (NCI procedure, sulforhodamine B), HT-29. In kind it is cell-based, human. To be noted: Homo sapiens, HT-29, 48 h. The procedure, abridged: as §1
In data set [4] the test system is mRNAs of IL-1B, IL-6, TNF-α and IL-8. Briefly: mRNA levels of cytokines in THP-1 cells stimulated with LPS. Format: cell-based. To be noted: in words. The text has this:
The effect of compounds 3a-b, 4a-e, 5a-e and 6a-e on the expression of IL-6 was subsequently assessed using the HaCaT spontaneously transformed aneuploid immortal keratinocyte cell line, stimulated by the addition of IL-17A and TNFα in the culture medium (Table 1). Curcumin and ibuprofen were used as known IL-6 expression inhibitors. DMSO was used for solubilizing the drugs. […] Indeed, the inhibitory effect of these molecules was at least equivalent to that of curcumin [27] and ibuprofen, both recognized as anti-inflammatory drugs. The inhibitory effect of the substituted phenyl cycloalkylureas in accordance with an embodiment of the present disclosure on proinflammatory cytokines was also found at the mRNA level. Indeed, the mRNAs of the cytokines IL-6 and TNF-α as well as the mRNA of the chemokine IL-8 were lowered in TNF-α/IL-17A-stimulated HaCaT cells. Similar results were obtained in THP-1 cells stimulated with LPS where treatments with CHEU and 4e diminished the mRNA levels of the cytokines IL-1B, IL-6 and TNF-α in addition to the mRNA levels of the chemokine IL-8. It is surmised that the anti-inflammatory mechanism of action of the compounds of the present disclosure is likely mediated, at least in part, by modulating the phosphorylation state of the MAP kinase p38. […]

The subject of the next data set is HaCaT cells. Briefly: Cell cycle analysis by flow cytometry. In kind it is cell-based, human. For orientation: A flow cytometer gives signals particle by particle.
The next data set relates to IL-6. Briefly: IL-6 expression in HaCaT cells stimulated with IL-17A and TNFα (ELISA). In kind it is cell-based, human. The settings on record: 10 μM solutions; HaCaT stimulated with IL-17A and TNFα; mean of five experiments in duplicate. The source says:
The effect of compounds 3a-b, 4a-e, 5a-e and 6a-e on the expression of IL-6 was subsequently assessed using the HaCaT spontaneously transformed aneuploid immortal keratinocyte cell line, stimulated by the addition of IL-17A and TNFα in the culture medium (Table 1). Curcumin and ibuprofen were used as known IL-6 expression inhibitors. DMSO was used for solubilizing the drugs. […] Indeed, the inhibitory effect of these molecules was at least equivalent to that of curcumin [27] and ibuprofen, both recognized as anti-inflammatory drugs. The inhibitory effect of the substituted phenyl cycloalkylureas in accordance with an embodiment of the present disclosure on proinflammatory cytokines was also found at the mRNA level. Indeed, the mRNAs of the cytokines IL-6 and TNF-α as well as the mRNA of the chemokine IL-8 were lowered in TNF-α/IL-17A-stimulated HaCaT cells. Similar results were obtained in THP-1 cells stimulated with LPS where treatments with CHEU and 4e diminished the mRNA levels of the cytokines IL-1B, IL-6 and TNF-α in addition to the mRNA levels of the chemokine IL-8. It is surmised that the anti-inflammatory mechanism of action of the compounds of the present disclosure is likely mediated, at least in part, by modulating the phosphorylation state of the MAP kinase p38. […] Addition of a compound in accordance with an embodiment of the present disclosure, prior to stimulation with the aforementioned cytokines, decreases the level of p-p38 at 30-60 minutes post-stimulation. This diminution in p-p38 levels destabilizes the mRNAs of pro-inflammatory cytokines, non-limiting examples of which include TNF-α and IL-6. Moreover, it is surmised that the effect of the compounds of the present disclosure on p-p38 is potentially mediated by the activation of the phosphatase named DUSP1.
HaCaT cells (1×10^5) were suspended in DMEM culture media (500 μL) and incubated for 24 h in 24-well microtiter plates at 37° C. in a moisture-saturated atmosphere containing 5% CO2. Compounds were solubilized in DMSO and diluted in fresh DMEM. The compound (500 μL) was then added to the cell medium to obtain a final concentration of […] and the cells incubated over a period of 1 hour. In the meantime, IL-17α (200 ng/mL) and TNFα (20 ng/mL) (PeproTech, Rocky Hill, N.J.) were added to the drug solution in DMEM. Following the initial incubation of the cells, the culture medium was aspirated from each well and the IL-17α+ TNFα+ compound solution was added to each well for incubation (6 hours). The culture media was then removed and transferred to a clean tube (1.5 mL) at −80° C. until the ELISA test was performed. The presence of IL-6 in the cell media was determined using an IL-6 human Duoset ELISA kit (Fisher Scientific, Ottawa, On.) according to the manufacturer's instructions. Standards and samples were prepared and assessed in duplicate. Two separate replicates were performed for each sample. The absorbance was measured at 450 nm and 540 nm using a TECAN infinite M1000 plate reader.
In general terms: An ELISA detects its analyte on a solid surface through an enzyme-linked reagent.

The test system of data set [5] is HaCaT keratinocyte cell line. Briefly: Antiproliferative activity (NCI procedure, sulforhodamine B), HaCaT. The settings on record: Homo sapiens, HaCaT, 48 h. Format: cell-based, human. The procedure, abridged: as §1
[6] abbreviates: Table 6, unit inferred, tested 781 nM to 100 μM.

Molecules are shown by their SMILES.

`O=C(Nc1ccc(C2CCCCC2)cc1)NC1CC1` [Compound 54, 1-(4-Cyclohexylphenyl)-3-cyclopropylurea] gave a melting point of 173 to 176 °C. The GI50 in data set [1] (Table 2) turned out to be 48 µM. Further, the midpoint of inhibition in data set [1] (setting [6]), the IC50, lay at 48 µM. In data set [2] (Table 2), this compound returned a GI50 of 40 µM. Further, in data set [2] (setting [6]), the IC50 amounted to 40 µM. The compound further displayed a GI50 in data set [3] (Table 2) of 54 µM. For the same compound, it took 54 µM to reach half-maximal inhibition in data set [3] (setting [6]) (IC50). In data set [4], the “mRNA levels of the cytokines IL-1B, IL-6 and TNF-α and of the chemokine IL-8” value is listed as “diminished”. In addition, in the data set with HaCaT cells (10 μM, 24 h), the “Cell cycle progression G0-G1” value stood at 47.7, the “Cell cycle progression G2-M” value is 28.1 and the “Cell cycle progression S” value came out at 24.2. For the same compound, in the data set on HaCaT cells (in words), the “effect on cell cycle progression” value is on record as “did not affect the cell cycle progression”. Also, the “Expression of IL-6, HaCaT” value in the data set on IL-6 is recorded as 29.2 ± 3.5 pg/mL. The compound further returned a GI50 in data set [5] (Table 2) of 74 µM. Moreover, the IC50 in data set [5] (setting [6]) came out at 74 µM.
